Data as given in PubChem BioAssay (NCI).
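Five compound concentrations were applied to cells in 96-well plates for 48 hours; endpoints were derived by simple linear interpolation of the resulting dose-response curve. TGI: total growth inhibition.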

Columns and labels:
Test in all cases: NCI tumour cell line growth inhibition, 48 h
SK-MEL-28 melanoma = system: SK-MEL-28 melanoma
NCI/ADR-RES ovarian = system: NCI/ADR-RES ovarian
SNB-75 CNS = system: SNB-75 CNS
CCRF-CEM leukemia = system: CCRF-CEM leukemia
HT29 colon = system: HT29 colon
HOP-92 NSCLC = system: HOP-92 NSCLC
HL-60(TB) leukemia = system: HL-60(TB) leukemia
EKVX NSCLC = system: EKVX NSCLC
MCF7 breast = system: MCF7 breast
MALME-3M melanoma = system: MALME-3M melanoma

CC(C)(C)OC(=O)N[C@@H](Cc1ccccc1)C(=O)N1CC[C@@H](C(=O)N2[C@H]3CC4CC[C@@]3(CS2(=O)=O)C4(C)C)N1
TGI (SK-MEL-28 melanoma): > 100 µM | TGI (NCI/ADR-RES ovarian): > 100 µM | TGI (SNB-75 CNS): > 100 µM | TGI (CCRF-CEM leukemia): > 100 µM | TGI (HT29 colon): > 100 µM | TGI (HOP-92 NSCLC): > 100 µM | TGI (HL-60(TB) leukemia): > 100 µM

Cn1c(=O)c2[nH]cnc2n(C)c1=O
TGI (SK-MEL-28 melanoma): > 100 µM | TGI (NCI/ADR-RES ovarian): > 100 µM | TGI (CCRF-CEM leukemia): > 100 µM | TGI (EKVX NSCLC): > 100 µM | TGI (MCF7 breast): > 100 µM | TGI (MALME-3M melanoma): > 100 µM | TGI (HOP-92 NSCLC): > 100 µM | TGI (HL-60(TB) leukemia): > 100 µM

CN(NC(=O)/C(=C/C=C/c1ccccc1)NC(=O)c1ccccc1)C1=C(Cl)C(=O)[N+](c2ccccc2)=CC1
TGI (SK-MEL-28 melanoma): 37.1 µM | TGI (NCI/ADR-RES ovarian): 53.8 µM | TGI (SNB-75 CNS): 69.6 µM | TGI (EKVX NSCLC): > 100 µM | TGI (HT29 colon): > 100 µM | TGI (MCF7 breast): 36.3 µM | TGI (MALME-3M melanoma): > 100 µM | TGI (HOP-92 NSCLC): 80.1 µM

O=C(n1c(=O)n(-c2ccc([N+](=O)[O-])cc2)c(=O)n1C(=O)C(Cl)(Cl)Cl)C(Cl)(Cl)Cl
TGI (SK-MEL-28 melanoma): > 100 µM | TGI (NCI/ADR-RES ovarian): > 100 µM | TGI (SNB-75 CNS): > 100 µM | TGI (CCRF-CEM leukemia): > 100 µM | TGI (EKVX NSCLC): > 100 µM | TGI (HT29 colon): > 100 µM | TGI (MCF7 breast): > 100 µM | TGI (MALME-3M melanoma): > 100 µM | TGI (HL-60(TB) leukemia): > 100 µM

C[N+](C)(C)c1nc(N)nc2c1ncn2C1OC(CO)C(O)C1O (stereo unspecified)
TGI (SK-MEL-28 melanoma): > 100 µM | TGI (NCI/ADR-RES ovarian): > 100 µM | TGI (SNB-75 CNS): > 100 µM | TGI (CCRF-CEM leukemia): > 100 µM | TGI (EKVX NSCLC): > 100 µM | TGI (HT29 colon): > 100 µM | TGI (MCF7 breast): > 100 µM | TGI (MALME-3M melanoma): > 100 µM | TGI (HOP-92 NSCLC): > 100 µM

O=C(NNc1ccc([N+](=O)[O-])cc1)C1OC(CO)C(O)C1O (stereo unspecified)
TGI (SK-MEL-28 melanoma): > 100 µM | TGI (SNB-75 CNS): > 100 µM | TGI (CCRF-CEM leukemia): > 100 µM | TGI (EKVX NSCLC): > 100 µM | TGI (HT29 colon): > 100 µM | TGI (MALME-3M melanoma): > 100 µM | TGI (HOP-92 NSCLC): > 100 µM | TGI (HL-60(TB) leukemia): > 100 µM

Cc1cccc(-c2cc(=O)c3c(C)ccnc3[nH]2)c1
TGI (SK-MEL-28 melanoma): > 100 µM | TGI (SNB-75 CNS): > 100 µM | TGI (CCRF-CEM leukemia): > 100 µM | TGI (EKVX NSCLC): > 100 µM | TGI (HT29 colon): > 100 µM | TGI (MCF7 breast): > 42.2 µM | TGI (HL-60(TB) leukemia): 0.703 µM

Cc1ccc(Oc2cc(C)ccc2P(=O)(O)O)cc1
TGI (SK-MEL-28 melanoma): > 100 µM | TGI (SNB-75 CNS): > 100 µM | TGI (CCRF-CEM leukemia): > 100 µM | TGI (EKVX NSCLC): > 100 µM | TGI (MCF7 breast): > 100 µM | TGI (HOP-92 NSCLC): > 100 µM | TGI (HL-60(TB) leukemia): > 100 µM

COC(=O)C1CC(C=O)=C(SC)N1 (stereo unspecified)
TGI (SK-MEL-28 melanoma): > 50 µM | TGI (NCI/ADR-RES ovarian): > 50 µM | TGI (SNB-75 CNS): > 50 µM | TGI (EKVX NSCLC): > 50 µM | TGI (HT29 colon): > 50 µM | TGI (MCF7 breast): > 50 µM | TGI (MALME-3M melanoma): > 50 µM | TGI (HOP-92 NSCLC): > 50 µM

CC(C)(CN1CCCCC1)C(=O)CC(SCCS(=O)(=O)O)c1ccc(Cl)c(Cl)c1 (stereo unspecified)
TGI (NCI/ADR-RES ovarian): 22.9 µM | TGI (CCRF-CEM leukemia): 4.69 µM | TGI (EKVX NSCLC): 18 µM | TGI (HT29 colon): 10.9 µM | TGI (MCF7 breast): 15.3 µM | TGI (MALME-3M melanoma): 22.1 µM | TGI (HOP-92 NSCLC): 6.18 µM | TGI (HL-60(TB) leukemia): 5.63 µM

CC(=O)Nc1oc(C)nc1C#N
TGI (SK-MEL-28 melanoma): > 100 µM | TGI (CCRF-CEM leukemia): > 100 µM | TGI (EKVX NSCLC): > 100 µM | TGI (HT29 colon): > 100 µM | TGI (MCF7 breast): > 100 µM | TGI (HOP-92 NSCLC): > 100 µM | TGI (HL-60(TB) leukemia): > 100 µM

NC(=O)Nc1n[nH]c(-c2ccccc2)n1
TGI (SK-MEL-28 melanoma): > 100 µM | TGI (NCI/ADR-RES ovarian): > 100 µM | TGI (SNB-75 CNS): > 100 µM | TGI (CCRF-CEM leukemia): > 100 µM | TGI (EKVX NSCLC): > 100 µM | TGI (HT29 colon): > 100 µM | TGI (MCF7 breast): > 100 µM | TGI (MALME-3M melanoma): > 100 µM | TGI (HL-60(TB) leukemia): > 100 µM

CC(C)=CCC/C(C)=C/CCC1(C)C2COC(=O)C21 (stereo unspecified)
TGI (SK-MEL-28 melanoma): > 100 µM | TGI (CCRF-CEM leukemia): 80.8 µM | TGI (EKVX NSCLC): > 100 µM | TGI (HT29 colon): > 100 µM | TGI (MCF7 breast): > 100 µM | TGI (MALME-3M melanoma): > 100 µM | TGI (HOP-92 NSCLC): 87 µM | TGI (HL-60(TB) leukemia): 46.4 µM

O=c1[nH]nc(Cc2ccc([N+](=O)[O-])cc2)[nH]1
TGI (SK-MEL-28 melanoma): > 100 µM | TGI (NCI/ADR-RES ovarian): > 100 µM | TGI (SNB-75 CNS): > 100 µM | TGI (CCRF-CEM leukemia): > 100 µM | TGI (EKVX NSCLC): > 100 µM | TGI (HT29 colon): > 100 µM | TGI (MCF7 breast): > 100 µM | TGI (MALME-3M melanoma): > 100 µM | TGI (HL-60(TB) leukemia): > 100 µM

COC(=O)[C@]12CCC(=O)N1[C@H](C(=O)O)Cc1c2[nH]c2ccccc12
TGI (SK-MEL-28 melanoma): > 100 µM | TGI (NCI/ADR-RES ovarian): > 100 µM | TGI (SNB-75 CNS): > 100 µM | TGI (CCRF-CEM leukemia): > 100 µM | TGI (EKVX NSCLC): > 100 µM | TGI (HT29 colon): > 100 µM | TGI (MCF7 breast): > 100 µM | TGI (MALME-3M melanoma): > 100 µM | TGI (HOP-92 NSCLC): > 100 µM

O/N=C1/CCCCC1NO (stereo unspecified)
TGI (SK-MEL-28 melanoma): > 100 µM | TGI (NCI/ADR-RES ovarian): > 100 µM | TGI (SNB-75 CNS): > 100 µM | TGI (CCRF-CEM leukemia): > 100 µM | TGI (EKVX NSCLC): > 100 µM | TGI (HT29 colon): > 100 µM | TGI (MCF7 breast): > 100 µM | TGI (MALME-3M melanoma): > 100 µM | TGI (HL-60(TB) leukemia): > 100 µM

O=C1C(=O)C(CCCO)(CCCO)CCCCCCCCC1(CCCO)CCCO
TGI (SK-MEL-28 melanoma): > 100 µM | TGI (NCI/ADR-RES ovarian): > 100 µM | TGI (SNB-75 CNS): > 100 µM | TGI (EKVX NSCLC): > 100 µM | TGI (HT29 colon): > 100 µM | TGI (MCF7 breast): > 100 µM | TGI (MALME-3M melanoma): > 100 µM | TGI (HOP-92 NSCLC): > 100 µM | TGI (HL-60(TB) leukemia): 29.9 µM

CCSc1nn(-c2c3ccccc3nc3ccccc23)c(=S)s1
TGI (SK-MEL-28 melanoma): > 100 µM | TGI (NCI/ADR-RES ovarian): > 100 µM | TGI (SNB-75 CNS): > 100 µM | TGI (CCRF-CEM leukemia): > 100 µM | TGI (EKVX NSCLC): > 100 µM | TGI (HT29 colon): > 100 µM | TGI (MCF7 breast): > 100 µM | TGI (HOP-92 NSCLC): > 100 µM | TGI (HL-60(TB) leukemia): > 100 µM

CC(=O)Oc1ccc(-c2c(OC(C)=O)c(OC(C)=O)c(-c3ccc(OC(C)=O)c(OC(C)=O)c3)c(OC(C)=O)c2OC(C)=O)cc1
TGI (SK-MEL-28 melanoma): 28.4 µM | TGI (NCI/ADR-RES ovarian): > 100 µM | TGI (SNB-75 CNS): 31.9 µM | TGI (CCRF-CEM leukemia): 37.4 µM | TGI (EKVX NSCLC): 20.2 µM | TGI (HT29 colon): 36.1 µM | TGI (MCF7 breast): 50.6 µM | TGI (MALME-3M melanoma): 30.3 µM | TGI (HL-60(TB) leukemia): 43.7 µM

CN1C(C(=O)Nc2ccccn2)=C(O)c2ccccc2S1(=O)=O
TGI (SK-MEL-28 melanoma): > 100 µM | TGI (NCI/ADR-RES ovarian): > 100 µM | TGI (SNB-75 CNS): > 100 µM | TGI (CCRF-CEM leukemia): > 100 µM | TGI (EKVX NSCLC): > 100 µM | TGI (HT29 colon): > 100 µM | TGI (MCF7 breast): > 100 µM | TGI (MALME-3M melanoma): > 100 µM | TGI (HL-60(TB) leukemia): > 100 µM

CCCNC(=O)Cn1c(-c2ccccc2)cc2ccccc21
TGI (SK-MEL-28 melanoma): > 100 µM | TGI (NCI/ADR-RES ovarian): > 100 µM | TGI (SNB-75 CNS): > 100 µM | TGI (CCRF-CEM leukemia): > 100 µM | TGI (EKVX NSCLC): > 100 µM | TGI (HT29 colon): > 100 µM | TGI (MCF7 breast): > 100 µM | TGI (MALME-3M melanoma): > 100 µM | TGI (HL-60(TB) leukemia): > 100 µM

Fc1ccccc1C1SCC2=Nc3ccccc3CN21 (stereo unspecified)
TGI (SK-MEL-28 melanoma): > 100 µM | TGI (NCI/ADR-RES ovarian): > 100 µM | TGI (SNB-75 CNS): > 100 µM | TGI (CCRF-CEM leukemia): > 100 µM | TGI (EKVX NSCLC): > 100 µM | TGI (HT29 colon): > 100 µM | TGI (MCF7 breast): > 100 µM | TGI (HOP-92 NSCLC): > 100 µM | TGI (HL-60(TB) leukemia): > 100 µM

O=C(O)c1cc2c(cc1CC(Cc1ccccc1)C(=O)O)CCC2 (stereo unspecified)
TGI (SK-MEL-28 melanoma): > 100 µM | TGI (NCI/ADR-RES ovarian): > 100 µM | TGI (SNB-75 CNS): > 100 µM | TGI (CCRF-CEM leukemia): > 100 µM | TGI (EKVX NSCLC): > 100 µM | TGI (HT29 colon): > 100 µM | TGI (MCF7 breast): > 100 µM | TGI (MALME-3M melanoma): > 100 µM | TGI (HL-60(TB) leukemia): > 100 µM

OCC1=C[C@@](COCc2ccccc2)(OCc2ccccc2)[C@@H](OCc2ccccc2)[C@@H]1OCc1ccccc1
TGI (SK-MEL-28 melanoma): > 100 µM | TGI (NCI/ADR-RES ovarian): 16.9 µM | TGI (CCRF-CEM leukemia): 11 µM | TGI (EKVX NSCLC): 51.4 µM | TGI (HT29 colon): 35.6 µM | TGI (MCF7 breast): 23.8 µM | TGI (MALME-3M melanoma): 44.6 µM | TGI (HL-60(TB) leukemia): 65.9 µM
